Laboratory results published in EP4617273A1, “FUSED TRICYCLIC PARP1 INHIBITOR, PREPARATION METHOD THEREFOR, AND USE THEREOF” (Haihe Biopharma Co., Ltd., priority 2022, dated 2024).
Like-named read-outs stand apart in the source and are kept apart here.

Key:
MDA-MB-436 cells = test: MDA-MB-436 cell proliferation inhibition test (CellTiter-Glo, 7 days); assay type: cell-based; conditions: Homo sapiens, MDA-MB-436, 168 h, 7 days incubation
Experimental: Human breast cancer MDA-MB-436 (purchased from ATCC) cells were cultured in DMEM medium (supplemented with 10% fetal bovine serum with 1% dual antibody) at 37 °C, 5% CO2. The cells were taken from the logarithmic growth phase, digested and prepare cell suspension witha certain concentration, which was inoculated into 96-well plates. 100 µL of cell suspension was added to each well of the 96-well plates, incubated overnight, then different concentrations of compounds were added, and the cells were incubated in the cell culture incubator for 7 days. At the end of incubation, 50 µL of CellTiter-Glo reagent was added to each well, mixed with a microplate and shaked for 2 min, and left at rt for 60 min, then the fluorescence value was read with a Spark® multimode microplate reader. […] Table 2. proliferation inhibitory activity of compounds of the present invention on MDA-MB-436 cells

[1] = molecular target: T1, Recombinant human PARP1 protein (Homo sapiens, UniProt P09874); test: biochemical
Experimental: (§2) The PARP1/2 inhibitory activity of the compounds of the present invention was tested in an assay using Histone as a substrate.
(§3) Aim of the assay: to test the PARP1/2 enzymatic activity inhibition IC50 values of the compounds of the present application according to established experimental methods.
(§4) 1. Compound Configuration: Dilute the compounds with DMSO in 384-well plates to a 1000-fold final concentration and set aside.
(§5) 1) Dilute Histone with PBS, add 25uL of Histone mixture to each well and incubate for 2 h. 2) Wash each well 5 times using PBST solution. Remove the solution with a clean paper towel.3) Add 75 uL of Blocking buffer to each well and incubate for 1 h at rt. 4) Wash each well 5 times using PBST solution. Remove the solution with a clean paper towel.
(§6) 2) Use 1× Assay buffer to prepare 2.5× final concentration of PARP1 solution. 3) Add 10 uL of enzyme solution to the compound wells and Max control wells; add 10 uL of 1× Assay buffer. […] 6) Centrifuge at 1000 rpm for 60 seconds and incubate at rt for 2 h. 7) Each well was washed 5 times with PBST solution. Remove the solution with a clean paper towel.
(§7) 1) Prepare Streptavidin-HRP solution, add 25 µL to each well, centrifuge at 1000 rpm for 60 sec, and incubate at rt for 30 min. 2) Wash each well 5 times using PBST solution. Remove the solution with a clean paper towel. 3) Add 50 µL of ELISA Chemiluminescent Substrate per well. 4) Centrifuge at 1000 rpm for 60 seconds and read with EnSight after 5 min.
(§8) The inhibition rate was calculated using the following formula: % inhibition = (max signal - compound signal) / (max signal - min signal) × 100, where 'min signal' is the mean value of negative control wells and 'max signal' is the mean value of positive control wells.
(§9) Fitting the quantitative effect curve: using the log value of the concentration as the X-axis and the percentage inhibition as the Y-axis; using the log(inhibitor) vs. response-variable slope method in software GraphPadPrism5 to fit the quantitative effect curve to calculate the IC50 value for the inhibition of the enzyme activity by the compounds of the present invention. The fitting formula is: Y=Bottom+ (Top-Bottom)/(1+10^((logIC50-X)*HillSlope)).

[2] = molecular target: T1, Recombinant human PARP1 protein; test: PARP1 enzymatic inhibitory activity, histone substrate, chemiluminescent ELISA; conditions: PARP2 IC50 over PARP1 IC50
Experimental: as §2, §3, §4, §5, §6, §7, §8, §9

[3] = molecular target: T2, recombinant human PARP2 protein (Homo sapiens, UniProt Q9UGN5); test: PARP2 enzymatic inhibitory activity, histone substrate, chemiluminescent ELISA; assay type: biochemical
T2 construct: purchased BPS 80502
Experimental: The PARP2 inhibitory activity assay was performed as in Experimental Method 1, except that PARP1 solution in step 2 of "3. Ribosylation reaction" was replaced with recombinant human PARP2 solution, and 500 µM NAD+ was not added in step 5 of the ribosylation reaction. Table 1. IC50 for inhibition of PARP1/2 enzymes by compounds of the present invention

MDR1 = test: MDR1-MDCK II cell model of bidirectional permeability; assay type: in vitro ADME; conditions: dog, 2 µM, 2.5 h; for Papp A→B at 2.5 h, 2 µM: apical-to-basolateral; for Papp B→A at 2.5 h, 2 µM: basolateral-to-apical
Experimental: (§1) 2 µM of the test compound was added to the wells at the apical side or the basolateral side of the monolayer of cells and incubated for 2.5 h at 37.0°C in a 5.0% CO2 incubator. Cell monolayer integrity was determined by Lucifer yellowrejection assay. The buffer was removed from the apical side and basolateral side, and the concentration of the subject compounds was determined using LC-MS/MS. The concentration data were used to calculate the apparent permeabilitycoefficients of apical-to-basolateral (A-B) and basolateral-to-apical (B-A)side, and to calculate efflux ratio with the formula: Efflux Ratio = Papp (B-A) / Papp (A-B) Table 3. bidirectional permeability of MDR1-MDCK II cells for compounds of the present invention

MDR1 (P-gp) = test: as above; assay type: in vitro ADME; conditions: dog, Efflux Ratio = Papp (B-A) / Papp (A-B), read-out: ER ratio
Experimental: as §1

[4] = Preliminary pharmacokinetic test in mice; assay type: in vivo; conditions: male, ICR; for AUC(0-t) / clearance / half-life: mouse plasma; for bioavailability: plasma, oral, mouse, p.o. 5 mg/kg versus i.v. 1 mg/kg
Experimental: 1. Healthy ICR mice were administered the tested compounds intravenously (1 mg/kg) or by gavage (5 mg/kg). Nine male mice weighing 30-35 g for each route of administration were randomly divided into three groups of three mice each.
The mice were fasted for 12h before the test and allowed to drink water freely. The mice were fed 4h after the administration.
Intravenous and gavage administration: 0.25h, 0.5h, 1.0h, 2.0h, 3.0h, 4.0h, 6.0h, 8.0h and 24h after administration.
Blood was collected continuously, and 3 animals were collected at each time point. Plasma collection and processing: 30-40 µL of venous blood was collected from the mouse retroorbital venous plexus at the above set time points, placed in an EDTA-K2 test tube, centrifuged at 3500 rpm for 10 min, and plasma was separated and frozen in a -20 °C refrigerator.
The concentration of the compounds in mouse plasma was determined by LC/MS/MS. Pharmacokinetic parameters after administration were calculated using the […] of Phoenix 8.3 software (Pharsight, USA).

[5] = histone substrate, 500 µM NAD+ not added, read-out: PARP2 IC50

T2 sequence (Q9UGN5 whole entry): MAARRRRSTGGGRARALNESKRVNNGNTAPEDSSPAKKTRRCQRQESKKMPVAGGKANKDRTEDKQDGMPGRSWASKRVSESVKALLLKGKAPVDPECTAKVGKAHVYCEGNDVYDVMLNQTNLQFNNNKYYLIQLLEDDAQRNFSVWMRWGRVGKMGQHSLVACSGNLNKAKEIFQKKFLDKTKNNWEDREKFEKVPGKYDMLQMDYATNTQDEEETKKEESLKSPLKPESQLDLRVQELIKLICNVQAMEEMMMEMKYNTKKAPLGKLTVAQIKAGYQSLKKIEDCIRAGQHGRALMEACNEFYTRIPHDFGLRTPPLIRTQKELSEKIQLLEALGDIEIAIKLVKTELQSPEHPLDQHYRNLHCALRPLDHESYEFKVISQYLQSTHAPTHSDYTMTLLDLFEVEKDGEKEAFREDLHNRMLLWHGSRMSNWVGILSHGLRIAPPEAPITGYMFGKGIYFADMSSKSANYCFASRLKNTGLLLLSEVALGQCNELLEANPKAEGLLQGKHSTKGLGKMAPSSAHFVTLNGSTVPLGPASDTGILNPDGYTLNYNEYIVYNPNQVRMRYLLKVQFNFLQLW
T1 sequence (P09874 whole entry): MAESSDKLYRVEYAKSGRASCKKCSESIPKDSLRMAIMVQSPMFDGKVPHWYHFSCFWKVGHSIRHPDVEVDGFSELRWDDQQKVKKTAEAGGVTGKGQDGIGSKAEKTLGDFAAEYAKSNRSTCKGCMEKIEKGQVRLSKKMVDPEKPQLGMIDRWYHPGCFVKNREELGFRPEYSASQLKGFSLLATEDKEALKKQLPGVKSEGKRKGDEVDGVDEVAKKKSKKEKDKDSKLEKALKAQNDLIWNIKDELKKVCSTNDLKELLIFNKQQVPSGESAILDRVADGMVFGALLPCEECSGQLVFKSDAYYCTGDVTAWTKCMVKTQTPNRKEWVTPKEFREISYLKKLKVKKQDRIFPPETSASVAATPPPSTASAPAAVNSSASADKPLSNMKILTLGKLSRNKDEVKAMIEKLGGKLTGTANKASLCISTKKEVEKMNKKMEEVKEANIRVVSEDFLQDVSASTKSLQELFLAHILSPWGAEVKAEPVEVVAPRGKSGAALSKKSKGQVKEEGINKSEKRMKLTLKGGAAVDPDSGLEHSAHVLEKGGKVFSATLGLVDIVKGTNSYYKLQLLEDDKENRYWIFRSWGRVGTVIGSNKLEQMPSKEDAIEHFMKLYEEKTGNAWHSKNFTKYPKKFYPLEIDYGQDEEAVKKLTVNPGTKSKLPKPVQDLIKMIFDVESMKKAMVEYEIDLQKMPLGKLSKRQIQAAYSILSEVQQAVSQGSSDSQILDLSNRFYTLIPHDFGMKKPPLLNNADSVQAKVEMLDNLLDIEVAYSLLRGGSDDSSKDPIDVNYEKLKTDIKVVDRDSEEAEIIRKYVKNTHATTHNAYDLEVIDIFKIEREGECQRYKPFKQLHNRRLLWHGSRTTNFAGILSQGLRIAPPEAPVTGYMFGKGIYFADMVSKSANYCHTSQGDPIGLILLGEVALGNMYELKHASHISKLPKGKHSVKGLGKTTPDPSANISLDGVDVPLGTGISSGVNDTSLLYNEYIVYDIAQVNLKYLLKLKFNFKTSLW

IC50 [1]	PARP1/2 Fold selectivity [2]	IC50 [3, 5]	SMILES	IC50 (MDA-MB-436 cells)	Papp A→B at 2.5 h, 2 µM (MDR1)	Papp B→A at 2.5 h, 2 µM (MDR1)	efflux ratio at 2.5 h, 2 µM (MDR1 (P-gp))	AUC(0-t) ([4]; iv, i.v. 1 mg/kg)	clearance ([4]; iv, i.v. 1 mg/kg)	half-life ([4]; iv, i.v. 1 mg/kg)	bioavailability [4]	AUC(0-t) ([4]; po, p.o. 5 mg/kg)	half-life ([4]; po, p.o. 5 mg/kg)	IC50 [3]
1.8 nM	466.3	1400 nM	CNC(=O)c1ccc(N2CCN(Cc3ccc4c(c3F)NC(=O)N3C4=NC[C@@H]3C)CC2)c(F)n1 [Compound 137]	22.6 nM	–	–	–	–	–	–	–	–	–	–
0.47 nM	207.4	97.5 nM	CNC(=O)c1ccc(N2CCN(Cc3ccc4c(c3F)NC(=O)N3CC(F)(F)CN=C43)CC2)c(Cl)n1 [Compound 159]	2.2 nM	–	–	–	–	–	–	–	–	–	–
1 nM	277.7	278 nM	CNC(=O)c1ccc(N2CCN(Cc3ccc4c(c3F)NC(=O)N3C[C@H](F)CN=C43)CC2)c(F)n1 [Compound 147]	2.1 nM	–	–	–	–	–	–	–	–	–	–
0.8 nM	447.6	358 nM	CNC(=O)c1ccc(N2CCN(Cc3ccc4c(c3)[nH]c(=O)c3nn(C)cc34)CC2)c(F)n1 [Compound 22]	4.6 nM	–	–	–	–	–	–	–	–	–	–
5.2 nM	>1923	> 10000 nM	CNC(=O)c1ccc(N2CCN(Cc3ccc4c(c3F)NC(=O)N3CC(C)CN=C43)CC2)c(F)n1 (stereo not drawn) [Compound 144]	–	–	–	–	–	–	–	–	–	–	–
17.6 nM	>568	> 10000 nM	CNC(=O)c1ccc(N2CCN(Cc3ccc4c(c3F)NC(=O)N3C4=NCCC3C)CC2)c(F)n1 (stereo not drawn) [Compound 150]	–	–	–	–	–	–	–	–	–	–	–
1.83 nM	426.4	780 nM	CCNC(=O)c1ccc(N2CCN(Cc3ccc4c(c3F)NC(=O)N3C[C@@H](C)N=C43)CC2)c(C)n1 [Compound 34]	–	–	–	–	–	–	–	–	–	–	–
2.8 nM	1313.2	3680 nM	CNC(=O)c1ccc(N2CCN(Cc3ccc4c(c3Cl)NC(=O)N3CCN=C43)CC2)c(F)n1 [Compound 134]	–	–	–	–	–	–	–	–	–	–	–
1.07 nM	524.6	561 nM	CNC(=O)c1ccc(N2CCN(Cc3ccc4c(c3)NC(=O)N3CCN=C43)CC2)c(F)n1 [Compound 124]	–	–	–	–	–	–	–	–	–	–	–
1 nM	521.6	522 nM	CNC(=O)c1ccc(N2CCN(Cc3ccc4c(c3)[nH]c(=O)c3nc(C)oc34)CC2)c(F)n1 [Compound 102]	3.7 nM	–	–	–	–	–	–	–	–	–	–
1.2 nM	1064	1280 nM	CNC(=O)c1ccc(N2CCN(Cc3ccc4c(c3F)NC(=O)N3CC(C)N=C43)CC2)c(F)n1 (stereo not drawn) [Compound 131]	15.3 nM	–	–	–	–	–	–	–	–	–	–

Further lines, the compound ahead of its results:

SMILES	IC50 [1]	PARP1/2 Fold selectivity [2]	IC50 [3, 5]	IC50 (MDA-MB-436 cells)	Papp A→B at 2.5 h, 2 µM (MDR1)	Papp B→A at 2.5 h, 2 µM (MDR1)	efflux ratio at 2.5 h, 2 µM (MDR1 (P-gp))	AUC(0-t) ([4]; iv, i.v. 1 mg/kg)	clearance ([4]; iv, i.v. 1 mg/kg)	half-life ([4]; iv, i.v. 1 mg/kg)	bioavailability [4]	AUC(0-t) ([4]; po, p.o. 5 mg/kg)	half-life ([4]; po, p.o. 5 mg/kg)	IC50 [3]
CNC(=O)c1ccc(N2CCN(C(C)c3ccc4c(c3)[nH]c(=O)c3ccnn34)CC2)c(F)n1 (stereo not drawn) [Compound 12]	0.57 nM	374.9	214 nM	< 1.52 nM	–	–	–	–	–	–	–	–	–	–
CNC(=O)c1ccc(N2CCN(Cc3ccc4nc(C)c(=O)[nH]c4c3F)CC2)c(F)n1 [AZD-9574]	–	–	–	15.7 nM	19.4 ×10⁻⁶ cm/s	19.4 ×10⁻⁶ cm/s	1	–	–	–	–	–	–	–
CNC(=O)c1ccc(N2CCN(Cc3ccc4c(c3F)NC(=O)N3CCCN=C43)CC2)c(Cl)n1 [Compound 141]	1.3 nM	–	–	5.8 nM	16.2 ×10⁻⁶ cm/s	23.1 ×10⁻⁶ cm/s	–	3020 ng·h/mL	5.5 mL/min/kg	1.2 h	92.6%	14000 ng·h/mL	2.5 h	–
CNC(=O)c1ccc(N2CCN(Cc3ccc4c(c3)[nH]c(=O)c3nc(C)sc34)CC2)c(F)n1 [Compound 103]	0.9 nM	922.1	829 nM	1.4 nM	–	–	–	–	–	–	–	–	–	–
CNC(=O)c1ccc(N2CCN(Cc3ccc4c(c3F)NC(=O)N3CC5(CC5)N=C43)CC2)c(F)n1 [Compound 138]	–	–	–	3 nM	14.7 ×10⁻⁶ cm/s	17 ×10⁻⁶ cm/s	–	–	–	–	–	–	–	–
CNC(=O)c1ccc(N2CCN(Cc3ccc4c(c3F)NC(=O)N3C[C@@H](C)N=C43)CC2)c(Cl)n1 [Compound 154]	1.6 nM	706.9	1130 nM	0.33 nM	13.9 ×10⁻⁶ cm/s	22.8 ×10⁻⁶ cm/s	1.64	7240 ng·h/mL	2.3 mL/min/kg	1.1 h	62.1%	22500 ng·h/mL	2.3 h	–
CNC(=O)c1ccc(N2CCN(Cc3ccc4c(c3F)NC(=O)N3CC5(CC5)N=C43)CC2)c(Cl)n1 [Compound 158]	0.48 nM	–	–	2.2 nM	14.7 ×10⁻⁶ cm/s	14.1 ×10⁻⁶ cm/s	–	3090 ng·h/mL	5.5 mL/min/kg	0.8 h	108%	11000 ng·h/mL	1 h	–
CNC(=O)c1ccc(N2CCN(Cc3ccc4c(c3F)NC(=O)N3CC(F)(F)CN=C43)CC2)c(C)n1 [Compound 160]	0.59 nM	–	–	5.7 nM	14.3 ×10⁻⁶ cm/s	8.78 ×10⁻⁶ cm/s	–	10500 ng·h/mL	1.6 mL/min/kg	0.86 h	70.7%	26100 ng·h/mL	0.9 h	–
CNC(=O)c1ccc(N2CCN(Cc3ccc4c(c3F)NC(=O)N3C[C@@H](C)N=C43)CC2)c(F)n1 [Compound 132]	1.5 nM	191.8	288 nM	12.1 nM	12.8 ×10⁻⁶ cm/s	26.8 ×10⁻⁶ cm/s	2.1	6630 ng·h/mL	2.8 mL/min/kg	3 h	98.7%	33100 ng·h/mL	4.4 h	–
CNC(=O)c1ccc(OC2CCN(Cc3ccc4c(c3)[nH]c(=O)c3ccnn34)C2)cn1 (stereo not drawn) [Compound 75]	16.5 nM	113.5	1870 nM	–	–	–	–	–	–	–	–	–	–	–
N#Cc1ccc(N2CCN(Cc3ccc4c(c3F)NC(=O)N3CCCN=C43)CC2)nc1 [Compound 188]	1.56 nM	466.3	728 nM	–	–	–	–	–	–	–	–	–	–	–
CNC(=O)c1ccc(N2CCN(Cc3ccc4c(c3F)NC(=O)N3C[C@@H](F)CN=C43)CC2)c(F)n1 [Compound 149]	1.6 nM	557.9	–	–	–	–	–	–	–	–	–	–	–	893 nM
CNC(=O)c1ccc(N2CCN(C(C)c3ccc4c(c3)[nH]c(=O)c3cccn34)CC2)cn1 (stereo not drawn) [Compound 6]	0.42 nM	51.7	21.7 nM	–	–	–	–	–	–	–	–	–	–	–
CNC(=O)c1ccc(N2CCN(Cc3ccc4c(c3F)NC(=O)N3CCCN=C43)CC2)c(F)n1 [Compound 139]	1 nM	–	–	10.4 nM	16.7 ×10⁻⁶ cm/s	21.8 ×10⁻⁶ cm/s	–	2820 ng·h/mL	5.9 mL/min/kg	3.1 h	98%	13800 ng·h/mL	3.2 h	–
CNC(=O)c1ccc(N2CCN(Cc3ccc4c([nH]c(=O)c5ccnn54)c3F)CC2)c(Cl)n1 [Compound 113]	0.8 nM	1626.3	1300 nM	< 1.52 nM	–	–	–	–	–	–	–	–	–	–
CNC(=O)c1ccc(N2CCN(Cc3ccc4c(c3F)NC(=O)N3C4=NC[C@@H]3C)CC2)c(Cl)n1 [Compound 156]	1.9 nM	–	–	25 nM	16.3 ×10⁻⁶ cm/s	21.1 ×10⁻⁶ cm/s	–	–	–	–	–	–	–	–
CNC(=O)c1ccc(N2CCN(C(C)c3ccc4c([nH]c(=O)c5cccn54)c3F)CC2)cn1 (stereo not drawn) [Compound 8]	2.04 nM	57.9	118 nM	–	–	–	–	–	–	–	–	–	–	–
CNC(=O)c1ccc(N2CCN(Cc3ccc4c(c3F)NC(=O)N3CC5(CC5)N=C43)CC2)c(C)n1 [Compound 157]	0.5 nM	–	–	3.6 nM	15.1 ×10⁻⁶ cm/s	21.6 ×10⁻⁶ cm/s	–	–	–	–	–	–	–	–
